Results: PubChem BioAssay (NCI)
“And” between values parts separate entries of the source, which are not always exact repeats. Equal entries are not always repeated.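 Five compound concentrations were applied to cells in 96-well plates for 48 hours; endpoints were derived by simple linear interpolation of the resulting dose-response curve. Abbreviation: GI50, concentration required for 50% inhibition of growth. TGI denotes the concentration required for complete inhibition of growth.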

Legend:
Experiment in all cases: NCI tumour cell line growth inhibition, 48 h; in the data active = GI50 below about 0.43 µM; inactive = the rest
786-0 renal = system: 786-0 renal
A498 renal = system: A498 renal
A549 NSCLC = system: A549 NSCLC
ACHN renal = system: ACHN renal
BT-549 breast = system: BT-549 breast
CAKI-1 renal = system: CAKI-1 renal
CCRF-CEM leukemia = system: CCRF-CEM leukemia
DU-145 prostate = system: DU-145 prostate
EKVX NSCLC = system: EKVX NSCLC
HCC-2998 colon = system: HCC-2998 colon
HCT-116 colon = system: HCT-116 colon
HCT-15 colon = system: HCT-15 colon
HL-60(TB) leukemia = system: HL-60(TB) leukemia
HOP-62 NSCLC = system: HOP-62 NSCLC
HOP-92 NSCLC = system: HOP-92 NSCLC
HS 578T breast = system: HS 578T breast
HT29 colon = system: HT29 colon
IGROV1 ovarian = system: IGROV1 ovarian
K-562 leukemia = system: K-562 leukemia
KM12 colon = system: KM12 colon
LOX IMVI melanoma = system: LOX IMVI melanoma
M14 melanoma = system: M14 melanoma
MALME-3M melanoma = system: MALME-3M melanoma
MCF7 breast = system: MCF7 breast
MDA-MB-231 breast = system: MDA-MB-231 breast
MDA-N = system: MDA-N
MOLT-4 leukemia = system: MOLT-4 leukemia
NCI-H226 lung = system: NCI-H226 lung
NCI-H23 lung = system: NCI-H23 lung
NCI-H460 lung = system: NCI-H460 lung
NCI-H522 lung = system: NCI-H522 lung
OVCAR-3 ovarian = system: OVCAR-3 ovarian
OVCAR-4 ovarian = system: OVCAR-4 ovarian
OVCAR-5 ovarian = system: OVCAR-5 ovarian
OVCAR-8 ovarian = system: OVCAR-8 ovarian
PC-3 prostate = system: PC-3 prostate
RPMI-8226 leukemia = system: RPMI-8226 leukemia
RXF 393 renal = system: RXF 393 renal
SF-268 CNS = system: SF-268 CNS
SF-295 CNS = system: SF-295 CNS
SF-539 CNS = system: SF-539 CNS
SK-MEL-2 melanoma = system: SK-MEL-2 melanoma
SK-MEL-28 melanoma = system: SK-MEL-28 melanoma
SK-MEL-5 melanoma = system: SK-MEL-5 melanoma
SK-OV-3 ovarian = system: SK-OV-3 ovarian
SN12C renal = system: SN12C renal
SNB-19 CNS = system: SNB-19 CNS
SNB-75 CNS = system: SNB-75 CNS
SR leukemia = system: SR leukemia
SW-620 colon = system: SW-620 colon
T-47D breast = system: T-47D breast
TK-10 renal = system: TK-10 renal
U251 CNS = system: U251 CNS
UACC-257 melanoma = system: UACC-257 melanoma
UACC-62 melanoma = system: UACC-62 melanoma
UO-31 renal = system: UO-31 renal

COc1ccc(-c2c(C#N)c(N)n(C3OC(CO)C(O)C(O)C3O)c(=S)c2C#N)cc1 (centres undefined)
inactive: GI50 (MCF7 breast) > 100 µM and 38.4 µM | GI50 (NCI-H522 lung) 34.4 µM and 13.2 µM | GI50 (SF-295 CNS) 64.7 µM and 22.3 µM
> 100 µM: TGI (786-0 renal) | TGI (A498 renal) | TGI (A549 NSCLC) | TGI (ACHN renal) | TGI (BT-549 breast) | TGI (CAKI-1 renal) | TGI (CCRF-CEM leukemia) | TGI (DU-145 prostate) | TGI (EKVX NSCLC) | TGI (HCC-2998 colon) | TGI (HCT-116 colon) | TGI (HCT-15 colon) | TGI (HL-60(TB) leukemia) | TGI (HOP-62 NSCLC) | TGI (HOP-92 NSCLC) | TGI (HT29 colon) | TGI (IGROV1 ovarian) | TGI (K-562 leukemia) | TGI (KM12 colon) | TGI (LOX IMVI melanoma) | TGI (M14 melanoma) | TGI (MALME-3M melanoma) | TGI (MCF7 breast) | TGI (MDA-MB-231 breast) | TGI (MDA-N) | TGI (MOLT-4 leukemia) | TGI (NCI-H226 lung) | TGI (NCI-H23 lung) | TGI (NCI-H460 lung) | TGI (NCI-H522 lung) | TGI (OVCAR-3 ovarian) | TGI (OVCAR-4 ovarian) | TGI (OVCAR-5 ovarian) | TGI (OVCAR-8 ovarian) | TGI (PC-3 prostate) | TGI (RPMI-8226 leukemia) | TGI (RXF 393 renal) | TGI (SF-268 CNS) | TGI (SF-295 CNS) | TGI (SF-539 CNS) | TGI (SK-MEL-2 melanoma) | TGI (SK-MEL-28 melanoma) | TGI (SK-MEL-5 melanoma) | TGI (SK-OV-3 ovarian) | TGI (SN12C renal) | TGI (SNB-19 CNS) | TGI (SNB-75 CNS) | TGI (SR leukemia) | TGI (SW-620 colon) | TGI (T-47D breast) | TGI (TK-10 renal) | TGI (U251 CNS) | TGI (UACC-257 melanoma) | TGI (UACC-62 melanoma) | TGI (UO-31 renal)
47.4 µM: TGI (HS 578T breast)
